The structures appear in SMILES notation. pEC50: −log10 of the molar value.

In the assay the test system is HBV. The assay can be described thus: HBV-DNA antiviral assay using HepG2.117 cells (intracellular HBV DNA by qPCR). Format: cell-based, genotype D HBV. The settings on record: Hepatitis B virus, 72 h, HBV DNA inhibition, 3 days incubation, 2% DMSO. In outline:
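HepG2.117 cells (stable genotype D HBV, Tet-off) seeded without doxycycline, treated next day with 9-point 4-fold dilutions in 2% DMSO for 3 days at 37° C. Intracellular HBV DNA quantified by qPCR against a standard curve; viability by CellTiter-Glo ATP. EC50, EC90, CC50 from variable-slope dose-response fits versus DMSO control.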
For orientation: pEC50 means the negative decadic logarithm of the EC50, by convention in mol/L. The low end stands for a high EC50, the high end for a low EC50. `CNC(=O)c1ccc(-n2c(=O)c3c(n4ncc(CC(C)C)c24)CN(C(=O)c2ccc(Br)c(Cl)c2)[C@@H](C)C3)cc1` (stereo in doubt) [Compound 55b, N-methyl-4-[rac-(11S)-12-(4-bromo-3-chloro-benzoyl)-5-isobutyl-11-methyl-8-oxo-2,3,7,12-tetrazatricyclo[7.4.0.0^2,6]trideca-1(9),3,5-trien-7-yl]benzamide]: the pEC50 was 6.30 to 7.30.

`Cc1nn[nH]c1-c1ccc(-n2c(=O)c3c(n4ncc(CC5CCC5)c24)CN(C(=O)c2ccc(Br)c(C(F)(F)F)c2)[C@@H](C)C3)cc1` (stereo in doubt) [Compound 76b, rac-(11S)-12-[4-bromo-3-(trifluoromethyl)benzoyl]-5-(cyclobutylmethyl)-11-methyl-7-[4-(4-methyl-1H-triazol-5-yl)phenyl]-2,3,7,12-tetrazatricyclo[7.4.0.0^2,6]trideca-1(9),3,5-trien-8-one] gave a pEC50 of 6.30 to 7.30.

Consider `CNC(=O)c1ccc(-n2c(=O)c3c(n4ncc(Cc5ccccc5)c24)CN(C(=O)c2ccc(Br)c(C(F)(F)F)c2)[C@H](C2CC2)C3)cc1` (stereo in doubt) [Compound 104b, N-methyl-4-[rac-(11S)-5-benzyl-12-[4-bromo-3-(trifluoromethyl)benzoyl]-11-cyclopropyl-8-oxo-2,3,7,12-tetrazatricyclo[7.4.0.0^2,6]trideca-1 (9),3,5-trien-7-yl]benzamide], for which the pEC50 is greater than 7.30.

Compound `CNC(=O)c1ccc(-n2c(=O)c3c(n4ncc(CC5CCC5)c24)CN(C(=O)c2ccc(Br)c(C(F)(F)F)c2)CC3)cc1` [Compound 16, 4-[12-[4-bromo-3-(trifluoromethyl)benzoyl]-5-(cyclobutylmethyl)-8-oxo-2,3,7,12-tetrazatricyclo[7.4.0.0^2,6]trideca-1(9),3,5-trien-7-yl]-N-methyl-benzamide] had a pEC50 greater than 7.30.

Compound `Cc1nn[nH]c1-c1ccc(-n2c(=O)c3c(n4ncc(Cc5ccccc5)c24)CN(C(=O)c2ccc(Br)c(C(F)(F)F)c2)[C@@H](C)C3)cc1` (stereo in doubt) [Compound 80b, rac-(11S)-5-benzyl-12-[4-bromo-3-(trifluoromethyl)benzoyl]-11-methyl-7-[4-(4-methyl-1H-triazol-5-yl)phenyl]-2,3,7,12 tetrazatricyclo[7.4.0.0^2,6]trideca-1(9),3,5-trien-8-one] gave a pEC50 of 6.30 to 7.30.

With `Cc1nn[nH]c1-c1ccc(-n2c(=O)c3c(n4ncc(CC(C)C)c24)CN(C(=O)c2ccc(Cl)c(C(F)(F)F)c2)[C@H](C)C3)cc1` (stereo in doubt) [Compound 63a, rac-(11R)-12-[4-chloro-3-(trifluoromethyl)benzoyl]-5-isobutyl-11-methyl-7-[4-(4-methyl-1H-triazol-5-yl)phenyl]-2,3,7,12-tetrazatricyclo[7.4.0.0^2,6]trideca-1(9),3,5-trien-8-one], the pEC50 is greater than 7.30.

`CNC(=O)c1ccc(-n2c(=O)c3c(n4ncc(CC5CC5)c24)CN(C(=O)c2ccc(Br)c(Cl)c2)[C@@H](C)C3)cc1` (stereo in doubt) [Compound 22b, N-methyl-4-[rac-(11S)-12-[4-bromo-3-chlorobenzoyl]-5-(cyclopropylmethyl)-11-methyl-8-oxo-2,3,7,12-tetrazatricyclo[7.4.0.0^2,6]trideca-1(9),3,5-trien-7-yl]benzamide] had a pEC50 greater than 7.30.

With `C[C@H]1Cc2c(n3ncc(CC4CCC4)c3n(-c3ccc(-c4nncn4C)cc3)c2=O)CN1C(=O)c1ccc(Cl)c(C(F)(F)F)c1` (stereo in doubt) [Compound 51b, rac-(11S)-12-[4-chloro-3-(trifluoromethyl)benzoyl]-5-(cyclobutylmethyl)-11-methyl-7-[4-(4-methyl-1,2,4-triazol-3-yl)phenyl]-2,3,7,12-tetrazatricyclo[7.4.0.0^2,6]trideca-1(9),3,5-trien-8-one], the pEC50 was 5.30 to 6.30.
